From ChEMBL document CHEMBL1153587, “Design, synthesis and biological evaluation of novel nitrogen and sulfur containing hetero-1,4-naphthoquinones as potent antifungal and antibacterial agents” (2009)
≈ marks a conversion by molar mass, not a printed value.

How the values were obtained:
Format in all cases: functional
Candida parapsilosis = assay: Antifungal activity against Candida parapsilosis ATCC 22019 after 48 hrs by broth microdilution method; conditions: Lodderomyces parapsilosis, ATCC 22019, 48 h
Cryptococcus neoformans = assay: Antifungal activity against Cryptococcus neoformans after 72 hrs by broth microdilution method
Aspergillus fumigatus = assay: Antifungal activity against Aspergillus fumigatus after 72 hrs by broth microdilution method
Candida albicans = assay: Antifungal activity against Candida albicans after 48 hrs by broth microdilution method
[1] = system: Trichophyton mentagrophytes; assay: Antifungal activity against sTrichophyton mentagrophytes after 96 hrs by broth microdilution method
Sporothrix schenckii = assay: Antifungal activity against Sporothrix schenckii after 72 hrs by broth microdilution method
Escherichia coli = assay: Antibacterial activity against Escherichia coli after 24 hrs by broth microdilution method
Klebsiella pneumoniae = assay: Antibacterial activity against Klebsiella pneumoniae ATCC 27736 after 24 hrs by broth microdilution method; conditions: ATCC 27736, 24 h
Staphylococcus aureus = assay: Antibacterial activity against Staphylococcus aureus ATCC 25923 after 24 hrs by broth microdilution method; conditions: ATCC 25923, 24 h

Compound	MIC (Candida parapsilosis)	MIC (Cryptococcus neoformans)	MIC (Aspergillus fumigatus)	MIC (Candida albicans)	MIC [1]	MIC (Sporothrix schenckii)	MIC (Escherichia coli)	MIC (Klebsiella pneumoniae)	MIC (Staphylococcus aureus)
OC(Cn1cncn1)(Cn1cncn1)c1ccc(F)cc1F [FLUCONAZOLE]	1 µg/mL (≈ 3.27 µM)	0.5 µg/mL (≈ 1.63 µM)	2 µg/mL (≈ 6.53 µM)	1 µg/mL (≈ 3.27 µM)	1.56 µg/mL (≈ 5.09 µM)	2 µg/mL (≈ 6.53 µM)	–	–	–
O=C1C(Cl)=C(Nc2ccccc2)C(=O)c2ccccc21	> 50 µg/mL	> 50 µg/mL	> 50 µg/mL	> 50 µg/mL	> 50 µg/mL	> 50 µg/mL	> 50 µg/mL	> 50 µg/mL	> 50 µg/mL
Clc1ccc(COC(Cn2ccnc2)c2ccc(Cl)cc2Cl)c(Cl)c1 (stereo not drawn) [MICONAZOLE]	–	12.5 µg/mL (≈ 30 µM)	12.5 µg/mL (≈ 30 µM)	25 µg/mL (≈ 60.1 µM)	< 0.78 µg/mL	–	–	–	–
O=C1C(Nc2ccccc2)=C(Sc2cccc3ccccc23)C(=O)c2ccccc21	> 50 µg/mL	> 50 µg/mL	> 50 µg/mL	50 µg/mL (≈ 123 µM)	> 50 µg/mL	> 50 µg/mL	–	–	–
NC1=C(Sc2cccc3ccccc23)C(=O)c2ccccc2C1=O	50 µg/mL (≈ 151 µM)	50 µg/mL (≈ 151 µM)	25 µg/mL (≈ 75.4 µM)	25 µg/mL (≈ 75.4 µM)	25 µg/mL (≈ 75.4 µM)	> 50 µg/mL	> 50 µg/mL	12.5 µg/mL (≈ 37.7 µM)	12.5 µg/mL (≈ 37.7 µM)
O=C1C(Cl)=C(Sc2cccc3ccccc23)C(=O)c2ccccc21	–	–	–	–	–	–	25 µg/mL (≈ 71.3 µM)	> 50 µg/mL	> 50 µg/mL
N#Cc1ccccc1NC1=C(Nc2ccccc2C#N)C(=O)c2ccccc2C1=O	50 µg/mL (≈ 128 µM)	25 µg/mL (≈ 64 µM)	> 50 µg/mL	> 50 µg/mL	> 50 µg/mL	> 50 µg/mL	–	–	–
O=C1C(Sc2cccc3ccccc23)=C(N(c2ccccc2)c2ccccc2)C(=O)c2ccccc21	> 50 µg/mL	> 50 µg/mL	50 µg/mL (≈ 103 µM)	25 µg/mL (≈ 51.7 µM)	50 µg/mL (≈ 103 µM)	> 50 µg/mL	–	–	–
O=C1C(Sc2ccccc2)=C(N(c2ccccc2)c2ccccc2)C(=O)c2ccccc21	–	–	–	–	–	–	> 50 µg/mL	50 µg/mL (≈ 115 µM)	50 µg/mL (≈ 115 µM)
COc1ccc2[nH]c3c(=O)c4ccccc4c(=O)c=3sc2c1	–	–	–	–	–	–	25 µg/mL (≈ 80.8 µM)	> 50 µg/mL	12.5 µg/mL (≈ 40.4 µM)
Cn1c(N)c2ccccc2nc2c(=O)c3ccccc3c(=O)c1=2	50 µg/mL (≈ 165 µM)	50 µg/mL (≈ 165 µM)	25 µg/mL (≈ 82.4 µM)	> 50 µg/mL	25 µg/mL (≈ 82.4 µM)	25 µg/mL (≈ 82.4 µM)	25 µg/mL (≈ 82.4 µM)	50 µg/mL (≈ 165 µM)	> 50 µg/mL
NCC[C@H](O)C(=O)N[C@@H]1C[C@H](N)[C@@H](O[C@H]2O[C@H](CN)[C@@H](O)[C@H](O)[C@H]2O)[C@H](O)[C@H]1O[C@H]1O[C@H](CO)[C@@H](O)[C@H](N)[C@H]1O [AMIKACIN]	–	–	–	–	–	–	1 µg/mL (≈ 1.71 µM)	1 µg/mL (≈ 1.71 µM)	16 µg/mL (≈ 27.3 µM)
COc1cccc(SC2=C(N)C(=O)c3ccccc3C2=O)c1	25 µg/mL (≈ 80.3 µM)	12.5 µg/mL (≈ 40.1 µM)	6.25 µg/mL (≈ 20.1 µM)	12.5 µg/mL (≈ 40.1 µM)	12.5 µg/mL (≈ 40.1 µM)	25 µg/mL (≈ 80.3 µM)	> 50 µg/mL	12.5 µg/mL (≈ 40.1 µM)	25 µg/mL (≈ 80.3 µM)
NYSTATIN	–	3.5 µg/mL	–	7.8 µg/mL	–	13.2 µg/mL	–	–	–
O=C1C(Cl)=C(N(c2ccccc2)c2ccccc2)C(=O)c2ccccc21	12.5 µg/mL (≈ 34.7 µM)	25 µg/mL (≈ 69.5 µM)	50 µg/mL (≈ 139 µM)	12.5 µg/mL (≈ 34.7 µM)	50 µg/mL (≈ 139 µM)	6.25 µg/mL (≈ 17.4 µM)	> 50 µg/mL	25 µg/mL (≈ 69.5 µM)	25 µg/mL (≈ 69.5 µM)
